From patent US20050075375A1 (priority 2003, published 2005) come the findings set out here.

In one experiment the test system is monocistronic NK5.1 HCV replicon in Huh7 cells. Briefly: HCV replicon assay, monocistronic replicon cell line. The format is cell-based, hepatitis C virus. The conditions noted are these: Hepatitis C virus, Huh-7, 72 h; Table 1; monocistronic replicon in Huh7 cells, 3 days incubation, HCV RNA/GAPDH RNA by TaqMan RT-PCR; read-out: Mono EC50 Median. An outline of the steps:
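Huh7 cells carrying the monocistronic NK5.1 replicon, seeded 24 h before dosing, were exposed to six-point half-log compound series (0.6% DMSO) for 3 days at 37 °C. Replicon RNA was quantified by TaqMan RT-PCR, normalised to GAPDH and compared with DMSO controls to derive EC50.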
A word on the EC50: it is the midpoint of the concentration-response curve. As for `Oc1ccccc1-c1nc(-c2nccc3ccccc23)no1` [Compound 206], the EC50 is 1.4 µM.
Consider `Oc1ccccc1-c1ccn(-c2ccccn2)n1` [Compound 43, 2-(1-Pyridin-2-yl-1H-pyrazol-3-yl)-phenol], for which the half-maximal effective concentration (EC50) turned out to be 15 µM.
As to `COc1ccc(-c2ccn(-c3c(Cl)cncc3Cl)n2)c(F)c1` [Compound 49, 3,5-Dichloro-4-[3-(2-fluoro-4-methoxy-phenyl)-pyrazol-1-yl]-pyridine], the EC50 was above 32 µM.
Regarding `O=[N+]([O-])c1ccc(-c2nc(-c3ccccn3)no2)c(Cl)c1` [Compound 141, 2-[5-(2-Chloro-4-nitro-phenyl)-[1,2,4]oxadiazol-3-yl]-pyridine], the EC50 came out at 10 µM.
With `Oc1ccc2ccccc2c1-c1nc(-c2ccccc2)no1` [Compound 135, 1-(3-Phenyl-[1,2,4]oxadiazol-5-yl)-naphthalen-2-ol], the 50% effective concentration (EC50) was above 32 µM.
In the case of `Cc1cc(-c2ccccc2O)nn1-c1ccccc1[N+](=O)[O-]` [Compound 2, 2-[5-Methyl-1-(2-nitro-phenyl)-1H-pyrazol-3-yl]-phenol], the EC50 was above 32 µM.
With `CCCNC(=O)c1cc(-c2ccc(OC)cc2)nn1-c1ccc(Cl)cc1` [Compound 55, 2-(4-Chloro-phenyl)-5-(4-methoxy-phenyl)-2H-pyrazole-3-carboxylic acid propylamide], the EC50 came out at 18 µM.
Turning to `Oc1ccc(O)c(-c2nc(-c3nccc4ccccc34)no2)c1` [Compound 196, 2-(3-Isoquinolin-1-yl-[1,2,4]oxadiazol-5-yl)-benzene-1,4-diol], the EC50 was above 32 µM.

The experiment is the same for the next values; noted with them: Hepatitis C virus, Huh-7, 72 h; table T3 (compounds 471-640); monocistronic replicon in Huh7 cells, 3 days incubation, HCV RNA/GAPDH RNA by TaqMan RT-PCR; read-out: Mono EC50 Median.
Turning to `Oc1cc(OCc2ccccc2)ccc1-c1nc(-c2ccc(C(F)(F)F)cn2)n[nH]1` [Compound 513, 5-Benzyloxy-2-[5-(5-trifluoromethyl-pyridin-2-yl)-2H-[1,2,4]triazol-3-yl]-phenol], the EC50 is above 19 µM.
Still for that read-out and setting: to `Cc1ccc(O)c(-c2nc(-c3ncccn3)n[nH]2)c1` [Compound 567, 4-Methyl-2-(5-pyrimidin-2-yl-2H-[1,2,4]triazol-3-yl)-phenol] belongs above 32 µM; to `Cn1nc(-c2ccccn2)nc1-c1cc(Cl)cc(Br)c1O` [Compound 627, 6-Bromo-4-Chloro-2-(2-methyl-5-pyridin-2-yl-2H-[1,2,4]triazol-3-yl)-phenol], 2.5 µM.
`Cc1cccnc1-c1n[nH]c(-c2cc(Br)cc(Br)c2O)n1` [Compound 623, 4,6-Dibromo-2-[5-(3-methyl-pyridin-2-yl)-2H-[1,2,4]triazol-3-yl]-phenol]: the concentration for a half-maximal effect (EC50) was 1.5 µM.

Still in this experiment, the particulars now being: Hepatitis C virus, Huh-7; monocistronic NK5.1 HCV replicon in Huh7 cells; median value; read-out: Mono EC50 Median.
With `Cc1cccnc1-c1n[nH]c(-c2c(O)ccc3ccccc23)n1` [Compound 461, 1-(5-(3-methyl-pyridin-2-yl)-2H-[1,2,4]triazol-3-yl)-naphthalen-2-ol], the EC50 turned out to be 6.9 µM.
Consider `Cc1cccc(-c2n[nH]c(-c3ccc(C(C)C)cc3)n2)n1` [Compound 408, 2-[5-(4-Isopropyl-phenyl)-1H-[1,2,4]triazol-3-yl]-6-methyl-pyridine], for which the EC50 is above 19 µM.
Still for that read-out and setting: the value for `Cc1ccccc1-c1nnc(-c2cccs2)o1` [Compound 317, 2-Thiophen-2-yl-5-o-tolyl-[1,3,4]oxadiazole] was above 32 µM.
The same measure, in the same setting: the value for `Cc1cccnc1-c1noc(-c2cccc(C)c2O)n1` [Compound 293, 2-Methyl-6-[3-(3-methyl-pyridin-2-yl)-[1,2,4]oxadiazol-5-yl]-phenol] was 1.7 µM; that for `CCOc1cccc(-c2nc(-c3ncccc3C)n[nH]2)c1O` [Compound 446, 6-Ethoxy-2-(5-(3-methyl-pyridin-2-yl)-2H-[1,2,4]triazol-3-yl)-phenol] was 7.8 µM; that for `Oc1ccc(Br)cc1-c1nc(-c2ccccn2)n[nH]1` [Compound 358, 4-Bromo-2-(5-pyridin-2-yl-2H-[1,2,4]triazol-3-yl)-phenol] was 4.3 µM.
The same measure, in the same setting: to `COc1ccccc1-c1nnc(-c2ccccc2F)o1` [Compound 326, 2-(2-Fluoro-phenyl)-5-(2-methoxy-phenyl)-[1,3,4]oxadiazole] belongs above 32 µM.
`Oc1ccc2ccccc2c1-c1nc(-c2ccoc2)no1` [Compound 285]: the EC50 stood at 11 µM.
